In patent US10702577B2, “Combination therapies using cyclosporine and aromatic cationic peptides” (STEALTH BIOTHERAPEUTICS CORP, priority 2010, dated 2020):
Square brackets hold non-standard residues; d marks the D form. Ends that are not written are not given here. Peptide text beside a SMILES is read from it.

Columns and labels:
mu-opioid receptor = conditions: result in words; no data shown; cited from earlier work
[1] = test system: transplanted tissue or organ; cyclosporine nephrotoxicity; test: Peptide with cyclosporine in transplant patients: organ health and nephrotoxicity (Example 7); assay type: in vivo; conditions: subjects who receive the peptide versus those who do not; predicted
Source text: To prevent organ or tissue rejection after transplant, patients often receive a regimen of the immunosuppressive drug cyclosporine. Cyclosporine levels are established and maintained in the subject at levels to effectively suppress the immune system. However, nephrotoxicity is a concern for these subjects, and the level of the drug in the subject's blood is monitored carefully. Cyclosporine doses are adjusted accordingly in order to not only prevent rejection, but also to deter these potentially damaging side effects. Typically, an adult transplant patient receives cyclosporine as follows: IV: 2 to 4 mg/kg/day IV infusion once a day over 4 to 6 hours, or 1 to 2 mg/kg IV infusion twice a day over 4 to 6 hours, or 2 to 4 mg/kg/day as a continuous IV infusion over 24 hours. Capsules: 8 to 12 mg/kg/day orally in 2 divided doses. Solution: 8 to 12 mg/kg orally once a day. […]
A therapeutically effective amount of an aromatic-cationic peptide or pharmaceutically acceptable salt thereof such as acetate or trifluoroacetate salt is administered to subjects prior to, during and/or after transplant as show in Table 13 above. Subjects are monitored for health and function of the transplanted tissue or organ, as well as the incidence and severity of nephrotoxicitity often seen with prolonged cyclosporine administration.

[2] = test system: several mammalian cell types; conditions: energy-independent manner; Zhao et al. 2003; cited from earlier work

Molecule: Tyr-D-Arg-Phe-Lys-NH2 [SS-01]
- mu-opioid receptor agonist activity (mu-opioid receptor): has mu-opioid receptor agonist activity

Molecule: Cc1cc(O)cc(C)c1C[C@H](NC(=O)[C@H](N)CCCNC(=N)N)C(=O)N[C@@H](CCCCN)C(=O)N[C@@H](Cc1ccccc1)C(N)=O [PEPTIDE, D-Arg-2′6′-Dmt-Lys-Phe-NH2] (HELM PEPTIDE1{[dR].[Cc1cc(O)cc(C)c1C[C@H](N[*:1])C(=O)[*:2]].K.F.[am]}$$$$V2.0)
- tolerated cyclosporine dosage [1]: able to maintain a higher and/or more consistent cyclosporine dosage for longer periods of time

Molecule: F[dR]FK-NH2 [SS-20]
- mu-opioid receptor agonist activity (mu-opioid receptor): does not have mu-opioid receptor agonist activity

Molecule: 2′,6′-Dmt-D-Arg-Phe-Lys-NH2 [SS-02]
- penetration of the plasma membrane [2]: readily penetrates the plasma membrane
